A short description of data set [1]: Trypsin digestion: proof of encapsulation and half-life. It counts as in vitro ADME. Particulars: role: substrate; 0.003% trypsin, acetate buffer pH=5, 25 °C, peptide 100 ppm; read-out: T1/2 (loss of 50% of the initial content). The protocol:
The study was performed on a suspension of Pal-KTTKS encapsulated according to the invention, using trypsin, an enzyme that hydrolyses a peptide whose sequence contains the amino acid lysine. The peptide is placed in the presence of trypsin and the amount of peptide remaining, i.e. not hydrolysed by trypsin, is measured as a function of time. Only the peptide released from the capsule over time is susceptible to hydrolysis.
At T0, measurements make it possible to confirm that the peptide is encapsulated.
The kinetics will then make it possible to determine the half-life, which constitutes an indicator of the peptide's accessibility to the enzyme, and therefore an indicator of the peptide's protection by the capsule.
Two solutions are compared: one containing the encapsulated peptide (100 ppm) and the other the free (i.e. non-encapsulated) peptide, also at 100 ppm. Acetate buffer solution at pH=5 containing 0.003% trypsin is added. The samples are heated to 25 °C. The enzymatic reaction is stopped to perform the measurements by adding isopropyl alcohol. Peptide quantification is performed by HPLC using the method described in paragraph B 1-4 above.
Hydrolysis monitoring is performed under the chromatographic analysis conditions described in paragraph B 1-4 above.

Data set [2] is described as follows: Stability at room temperature. The class given is physicochemical. The protocol:
(§1) For these studies, encapsulated peptide formulations were stored in HDPE polyethylene bottles at the study temperature (room temperature and 40 °C). At each analysis time, a new 30 g bottle is opened for the first time. All the samples are handled under regular laboratory lighting and normal air conditions. No inert gas is used to fill the bottles or to handle the samples.
The following encapsulated peptides were monitored: Pal-KTTKS, Pal-GHK, Pal-GQPR, Pal-KTFK, Pal-KMO2K, Pal-VGVAPG and Pal-PP.

A short description of data set [3]: Accelerated stability at 40 °C. It counts as physicochemical. The protocol: as §1
The study was performed at 40 °C. At this temperature, degradation is accelerated. There is a correlation with degradation at room temperature, 90 days at 40 °C being equivalent to 1 year at room temperature. This study thus constitutes a good indicator of the stability of the encapsulated peptide suspensions according to the invention.

A short description of data set [4]: Characterization of the obtained suspensions at T0 (macroscopic, pH, laser diffraction particle size, polydispersity, HPLC peptide content). Particulars: different derivatization, peptide 100 ppm. The class given is physicochemical. On the procedure:
For each suspension, the presence or absence of heterogeneous aspects, phase separation or precipitation, and colour are visually assessed through a colourless transparent bottle without the use of any instruments. The viscosity is also estimated visually in comparison with water.
The pH was measured directly in the formulation (without dilution) using a calibrated potentiometer (pH 4.0 and 7.0).
Laser diffraction technique (Mastersizer 3000™, Malvern). The suspension is added directly to the water-containing wet dispersion unit until darkening in the 2-8% range. The refractive index used is 1.456, corresponding to the index of wax, i.e. cetyl palmitate. The results are expressed in D50 corresponding to particle diameters at the 50th percentile of the particle size distribution curve, representing the mean particle size.
A range of less than 2 is considered as a narrow distribution, describing particle size homogeneity.
This is quantified using an HPLC chromatography method, with a column, mobile phase and detection appropriate to each peptide active agent. An external calibration curve is produced.
Each suspension is treated by liquid/liquid extraction of a mixture composed of isopropanol, a pH 2-2.5 buffer and an organic solvent (acetonitrile or methanol) depending on the peptide to be dosed.
For Pal-KTTKS, Pal-GHK, Pal-GQPR and Pal-VGVAPG peptides, quantification is performed, for example, by HPLC at 35 °C using a Waters Symmetry™ C18 5 μm 4.6×150 mm HPLC column, a mobile phase consisting of an eluent of 99.8/0.1/0.1 v/v/v water/orthosphoric acid/triethylamine and acetonitrile. Detection is performed at 210 nm.
For the Pal-PP peptide, for example, analysis is performed at 40 °C using a Macherey Nagel™ EC 125/4 Nucleodur 100-5 C8 ec column, a mobile phase consisting of a 99.8/0.1/0.1 v/v/v water/orthosphoric acid/triethylamine and acetonitrile eluent. Detection is performed at 210 nm. […]

Setting [5] is: TA1 decyl glucoside, RT, 3 months.
[6] abbreviates: different derivatization, peptide 100 ppm, 1 month at 40 °C.

Residues, ends and D or L forms follow the SMILES beside them. No end group written: not given here. *: point of attachment. Palmitoyl = CCCCCCCCCCCCCCCC(=O)*; Lauroyl = CCCCCCCCCCCC(=O)*

`CCCCCCCCCCCCCCCC(=O)N[C@@H](CCCCN)C(=O)N[C@H](C(=O)N[C@H](C(=O)N[C@@H](CCCCN)C(=O)N[C@@H](CO)C(=O)O)[C@@H](C)O)[C@@H](C)O` [Pal-KTTKS] (Palmitoyl-KTTKS-OH): the half-life in data set [1] came out at 60 min. The Stability over time result in data set [2] (2.5% wax, RT, 6 months) was “Yes”; in data set [2] (5% wax, RT, 6 months) it was “Yes”; in data set [2] (setting [5]) it was “Yes (3 months)”; in data set [2] (TA1 lauryl glucoside, RT, 12 months), “Yes (12 months)”; in data set [3] (setting [6]) it was “Yes”. In addition, in data set [2] (room temperature, encapsulated), the stability duration entry is recorded as “up to 1 year”.
On to `CCCCCCCC(=O)N[C@H](C(=O)N[C@@H](Cc1c[nH]c2ccccc12)C(=O)O)[C@@H](C)CC` [Octanoyl-IW], for which the Stability over time entry in data set [3] (setting [6]) was “Yes”.
In the case of `CCCCCCCCCCCC(=O)N[C@@H](CCCCN)C(=O)N[C@H](C(=O)N[C@@H](CO)C(=O)N[C@@H](CCCCN)C(=O)N[C@@H](CO)C(=O)O)[C@@H](C)O` [Lauroyl-KTSKS] (Lauroyl-KTSKS-OH), in data set [3] (setting [6]), the Stability over time entry is “Yes”.
Still for that read-out and setting: the value for KTTKS [H-KTTKS] was “Yes”.
Take `CCCCCCCCCCCCCCCC(=O)NCC(=O)N[C@@H](Cc1c[nH]cn1)C(=O)N[C@@H](CCCCN)C(=O)O` [Pal-GHK] (Palmitoyl-Gly-His-Lys-OH): the Stability over time entry in data set [2] (10% glycerol, 1 month) is listed as “Yes”; in data set [2] (TA1 + TA2 (Lipoid P75-3), 3 months at RT), “Yes”; in data set [2] (setting [5]), “Yes (3 months)”; in data set [2] (TA1 lauryl glucoside, RT, 3 months) it was “Yes (3 months)”; in data set [2] (TA1 only, without TA2, 3 months at RT), “Yes”; in data set [2] (peptide content 100 ppm, RT, 1 month), “Yes”. The Stability over time result is listed as “Yes” in data set [2] (peptide content 500 ppm, RT, 1 month); “Yes” in data set [2] (peptide content 1000 ppm, RT, 1 month); “Yes” in data set [2] (without glycerol, 1 month); “Yes” in data set [3] (TA1 + TA2 (Lipoid P75-3), 3 months at 40 °C); “No: Phase” in data set [3] (TA1 only, without TA2, 3 months at 40 °C).
Turning to `CCCCCCCCCCCCCCCCOC(=O)[C@H](CCCNC(=N)N)NC(=O)[C@H](Cc1ccc(O)cc1)NC(C)=O` [N-Acetyl-YR-O-hexadecyl ester, Acetyl-Tyr-Arg-hexadecyl ester], in data set [4], the D50 result is on record as “D50 (μm) = 0.234”, the “Formation of a suspension of submicron particles” value was “Yes” and the pH result is recorded as “pH 8.70”. In addition, in data set [3] (setting [6]), the D50 entry is listed as “D50 (μm) = 0.237”, the Stability over time entry is “Yes” and the pH entry is recorded as “pH 8.70”.

(Values after patent US20260345459A1, “SUBMICRON PARTICLE COMPRISING A PEPTIDE ACTIVE, PREPARATION METHOD AND USES THEREOF, IN PARTICULAR COSMETIC USES” (Sederma, priority 2023, published 2026).)
